Data on three compounds can be found in publication PMC8552049 (SLAS discovery : advancing life sciences R & D, 2021).

In assay [1] the target is T1, RGS7/Gβ5/R7BP complex (Homo sapiens, UniProt P49802).
T1 sequence (P49802 1-495): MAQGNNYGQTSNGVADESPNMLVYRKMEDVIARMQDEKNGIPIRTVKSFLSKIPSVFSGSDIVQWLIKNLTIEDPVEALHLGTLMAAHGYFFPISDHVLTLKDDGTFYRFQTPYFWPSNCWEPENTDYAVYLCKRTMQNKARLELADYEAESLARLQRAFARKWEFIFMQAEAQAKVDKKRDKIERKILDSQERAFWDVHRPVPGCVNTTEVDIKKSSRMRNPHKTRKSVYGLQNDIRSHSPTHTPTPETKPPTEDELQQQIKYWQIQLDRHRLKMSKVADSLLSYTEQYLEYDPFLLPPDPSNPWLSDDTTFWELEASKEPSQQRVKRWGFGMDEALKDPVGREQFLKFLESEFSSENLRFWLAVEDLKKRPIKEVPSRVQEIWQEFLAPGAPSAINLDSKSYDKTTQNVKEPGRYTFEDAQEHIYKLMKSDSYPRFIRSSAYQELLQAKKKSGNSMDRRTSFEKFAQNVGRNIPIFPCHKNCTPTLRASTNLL
T1 sequence (O14775 43-395 partner limits assumed): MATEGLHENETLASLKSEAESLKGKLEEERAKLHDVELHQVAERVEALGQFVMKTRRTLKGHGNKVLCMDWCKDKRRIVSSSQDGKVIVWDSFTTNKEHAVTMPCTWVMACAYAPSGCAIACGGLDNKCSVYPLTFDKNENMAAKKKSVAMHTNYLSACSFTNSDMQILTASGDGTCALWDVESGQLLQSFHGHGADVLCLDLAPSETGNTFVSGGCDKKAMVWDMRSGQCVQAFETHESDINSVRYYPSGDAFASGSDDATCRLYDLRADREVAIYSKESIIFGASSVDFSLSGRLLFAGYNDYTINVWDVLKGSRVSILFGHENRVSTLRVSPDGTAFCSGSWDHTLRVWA
Put plainly: TR-FRET assay of RGS7/Gβ5 interaction with R7BP, inhibitors mode. It counts as binding. Background: TR-FRET usually uses a lanthanide donor and a delayed reading to cut background.

Assay [2] has as its target T1, RGS7/Gβ5/R7BP complex. Put plainly: TR-FRET assay of RGS7/Gβ5 interaction with R7BP, activators mode. The assay is classed as binding.

Where two headings read alike, the source gives them in different places.

In the case of `NCCc1cc(O)c(O)cc1O` [6-hydroxydopamine], it took 7650 ± 3740 nM to reach half-maximal inhibition at RGS7/Gβ5/R7BP complex [1] (IC50, inhibition of complex formation, initial dose response studies) (IC50).
`O=C1CCCN1C(=S)C(=S)N1CCCC1=O` [SR-01000319258–1, 1-[2-(2-oxopyrrolidin-1-yl)-2-sulfanylideneethanethioyl]pyrrolidin-2-one]: on RGS7/Gβ5/R7BP complex [1], the IC50 (as a rule, the concentration needed to halve the response being measured) was 173 nM. At RGS7/Gβ5/R7BP complex [1] (tertiary screening, first HTS campaign, concentration response curves), this compound had a maximum inhibition of 54.2 ± 0.84%.
Consider `NC(=O)c1cc([N+](=O)[O-])cc([N+](=O)[O-])c1` [nitromide], for which the EC50 (commonly the concentration at which the effect is half-maximal) at RGS7/Gβ5/R7BP complex [2] was determined as 760 ± 100 nM.
